One block for each molecule: values may come before it.
Legend:
sGC = conditions: cited from earlier work
[1] = biological target: T1, recombinant human α1/β1 sGC (Homo sapiens, UniProt Q02108+Q02153); experiment: cGMP production by purified recombinant sGC (activation by tetrapyrroles); format: biochemical; conditions: for concentration at which sGC activation is maximal (dose response): dose response of corrins, FIG. 4C; for shift of EC50 of sGC activation in the combination: FIG. 4D/4E
T1 construct: made in house
T1 sequence (Q02108 1-690): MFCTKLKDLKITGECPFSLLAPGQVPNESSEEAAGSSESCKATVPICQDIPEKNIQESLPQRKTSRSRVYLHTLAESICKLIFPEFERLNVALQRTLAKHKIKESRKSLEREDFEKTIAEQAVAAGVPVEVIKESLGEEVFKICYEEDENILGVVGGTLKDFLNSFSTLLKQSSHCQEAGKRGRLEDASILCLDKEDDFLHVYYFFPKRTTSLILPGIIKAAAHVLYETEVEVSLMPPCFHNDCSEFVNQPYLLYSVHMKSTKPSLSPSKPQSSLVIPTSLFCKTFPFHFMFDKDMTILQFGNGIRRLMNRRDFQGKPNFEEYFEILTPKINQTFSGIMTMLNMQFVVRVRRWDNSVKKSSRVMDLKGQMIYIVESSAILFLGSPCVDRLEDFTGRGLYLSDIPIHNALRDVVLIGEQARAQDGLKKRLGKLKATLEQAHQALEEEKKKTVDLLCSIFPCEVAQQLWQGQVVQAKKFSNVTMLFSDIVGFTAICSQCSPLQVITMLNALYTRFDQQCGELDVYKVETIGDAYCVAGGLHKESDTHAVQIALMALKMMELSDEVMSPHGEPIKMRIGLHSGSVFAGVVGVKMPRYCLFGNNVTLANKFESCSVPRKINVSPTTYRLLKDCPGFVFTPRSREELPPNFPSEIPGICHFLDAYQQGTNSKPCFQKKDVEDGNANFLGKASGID
T1 sequence (Q02153 1-619): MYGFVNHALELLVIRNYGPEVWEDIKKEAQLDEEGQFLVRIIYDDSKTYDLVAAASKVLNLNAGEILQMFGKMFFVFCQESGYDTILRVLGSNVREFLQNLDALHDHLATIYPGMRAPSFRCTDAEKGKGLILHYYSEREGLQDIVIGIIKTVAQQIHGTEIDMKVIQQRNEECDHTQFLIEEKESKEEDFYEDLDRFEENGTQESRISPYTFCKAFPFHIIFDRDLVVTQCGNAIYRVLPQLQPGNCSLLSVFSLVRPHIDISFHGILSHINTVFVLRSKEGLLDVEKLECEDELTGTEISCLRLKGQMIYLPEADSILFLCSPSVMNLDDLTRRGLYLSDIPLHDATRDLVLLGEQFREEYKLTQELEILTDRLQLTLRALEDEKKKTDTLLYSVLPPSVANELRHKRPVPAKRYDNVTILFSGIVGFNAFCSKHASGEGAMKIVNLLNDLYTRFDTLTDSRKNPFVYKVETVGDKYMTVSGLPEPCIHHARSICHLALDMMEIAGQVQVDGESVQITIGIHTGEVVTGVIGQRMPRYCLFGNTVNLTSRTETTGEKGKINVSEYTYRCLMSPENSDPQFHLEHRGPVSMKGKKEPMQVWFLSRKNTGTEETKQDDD
Method: FIG. 4. Effect of tetrapyrroles on sGC activity in vitro. A. cGMP production by recombinant human α1/β1 sGC induced by 50 μM factor B, bilirubin, nitrite ionophore 1, uroporphyrin I, or protoporphyrin IX. B. cGMP production by recombinant human α1/β1 sGC induced by 50 μM factor B, bilirubin, nitrite ionophore 1, uroporphyrin I, or protoporphyrin IX alone or in the presence of 1 μM BAY41-2272 or HMR1766. C. cGMP production by recombinant al (31 sGC in response to increasing concentration of protoporphyrin, factor B, vitamin B12 and vitamin B12a. D. cGMP production by recombinant human al/131 sGC induced by various doses of factor B at various doses of BAY41-2272. E. cGMP production by recombinant human α1/β1 sGC induced by various doses of factor B at various doses of BAY41-2272.
Activation of purified sGC by various tetrapyrroles. […] Methods of recombinant expression and purification of human α1/β11 isoform of sGC have been developed^23, 24. Measurements of enzymatic activity and multiple spectral studies performed using this recombinant enzyme^10, 23, 25 indicate that these recombinant preparations have identical properties as the native enzyme. We tested a series of tetrapyrrole compounds (FIG. 3), which are structurally related to PPIX. Similar to PPIX, majority of the tested tetrapyrroles contain four pyrrole rings connected to form a microcycle. In the case of billirubin, however, the microcycle is interrupted. […] We then compared fB with vitamin B12 (cyanocobalamine) or its derivative B12a (aquacobalamine) and PPIX, all at 50 μM. […] HMR1766 was kindly provided by Sanofi-Avantis (see a letter attached).

anesthetized rats = experiment: Blood pressure (MAP) and cardiac output in instrumented anesthetized rats; format: in vivo, Sprague Dawley rats; conditions: for change in blood pressure after bolus: 500 μl bolus into abdominal aorta, fB at 5 and 15 mg/ml or 100 μg/kg BAY41-2272; for change in cardiac output after bolus: 500 μl bolus, data not shown
Method: FIG. 6. Effect of factor B and BAY41-2272 on mean arterial pressure (MAP) in instrumented anesthetized rats. Indicated amount of drugs were delivered as a 500 μl bolus through a catheter into the abdominal aorta and MAP were recorded as described in section D1.2. “Contr”—500 μl of saline,
Effect of factor B and BAY41-2272 on blood pressure of anesthetized rats. We also measured the effect of bolus application of fB on changes in hemodynamic parameters in anesthetized rats. Sprague Dawley rats were surgically implanted with a 10-MHz pulsed Doppler flow and a displacement probe around the ascending aorta and sutured to the left ventricular wall, respectively. A Tygon catheter was placed into the abdominal aorta via the femoral artery. After recovery the animals were anesthetized with halothane, intubated, and ventilated under isothermic conditions. Changes in systolic, diastolic, mean arterial pressures and cardiac output were recorded and processed with a multichannel-pulsed Doppler flow/dimension system and digitized (A/D converter). Before experimental treatments with fB and/or BAY41-2272 the animals were treated with a bolus of 30 μg/kg of sodium nitroprusside to confirm the integrity of the catheter and delivery system and the responsiveness of animals to drugs. After the baseline was established a 500 μl bolus of fB at 5 and 15 mg/ml or 100 μg/kg of BAY41-2272 (Alexis, San Diego, Calif., USA) was delivered and the changes in blood pressure (FIG. 6A). and cardiac output were recorded (data not shown).

rat aortic rings [2] = experiment: Relaxation of phenylephrine-preconstricted isolated rat aortic rings; format: cell-based, Sprague Dawley rats; conditions: for vascular relaxation of preconstricted aortic rings: 1 μM phenylephrine preconstriction, cumulative addition
Method: FIG. 5. Synergistic effect of corrin derivatives and BAY41-2272 on relaxation of rat aortic rings. The measurements were performed in the presence of corrin derivatives±BAY41-2272 as described in the text. Data are average of two aortic rings per each dose-response curve. Arrow indicates the shift in the effective dose and increased response.
FB-dependent relaxation of isolated rat aorta. In addition to in vitro analysis of sGC activity, we tested whether fB and vitamin B12 derivatives will induce relaxation of preconstricted rat aortic rings. The descending thoracic aorta was excised from freshly sacrificed Sprague Dawley rats, cleaned of adherent tissue and cut into 3-4 mm rings. Each ring was suspended between two wires hooks and mounted under 1 mN of passive tension in 4 ml organ chambers filled with Krebs' solution at 37° C., pH 7.4 and continuously aerated with 95% O2/5% CO2. The changes in isometric tension were measured by a force transducer (Grass Instruments, USA) connected to a PowerLab 400™ data-acquisition system (ADInstruments, Colorado Springs, Mass., USA). Ring preparations were equilibrated for 1 h before the start of the experiments. After the equilibration period, rings were preconstricted with 1 μM phenylephrine and maximal contractile response is determined. After maximal constriction the agonists (vitamin B12, methyl-B12, fB, BAY41-2272) were added cumulatively and changes in isometric tension determined. […] In the presence of a low dose of BAY41-2272 (0.1 μM) EC50 of fB decreased while the response increased.

rat aortic rings [3] = experiment: cGMP levels in treated rat aortic rings; format: cell-based; conditions: 5 minutes incubation, 37° C., in combination with BAY 41-2272
Method: FIG. 7. Changes in cGMP levels in rat aortic rings. Aortic rings were incubated with saline or saline with factor B in the presence or absence of BAY 41-2272 for 5 minutes at 37° C. cGMP was extracted and quantified.
Changes in cGMP levels in isolated rat aorta treated with factor B and BAY 41-2272. In order to confirm that relaxation of blood vessels and decreased blood pressure in response to factor B is dependent on sGC activity we measured cGMP levels in treated aortic rings.

[4] = fB together with 100 μg/kg BAY41-2272, FIG. 6B
[5] = combination of BAY41-2272 and fB
[6] = in the presence of 0.1 μM BAY41-2272

Molecule: [N]=O [NO, nitric oxide]
- increase in rate of cGMP production (sGC; high-output state): > 100 fold

- concentration at which sGC activation is maximal (dose response) [1]: 50 µM
Molecule: C/C1=C2/[N-][C@H]([C@H](CC(N)=O)[C@@]2(C)CCC(=O)NC[C@@H](C)OP(=O)([O-])OC2C(O)[C@@H](n3cnc4cc(C)c(C)cc43)O[C@H]2CO)[C@]2(C)N=C(/C(C)=C3N=C(/C=C4N=C1[C@@H](CCC(N)=O)C\4(C)C)[C@@H](CCC(N)=O)[C@]\3(C)CC(N)=O)[C@@H](CCC(N)=O)[C@]2(C)CC(N)=O.O.[Co+2] (some centres unmarked) [vitamin B12a, aquacobalamine, reference compound]

Molecule: C/C1=C2/[N-]C([C@H](CC(N)=O)[C@@]2(C)CCC(=O)NCC(C)O)[C@]2(C)N=C(/C(C)=C3N=C(/C=C4N=C1[C@@H](CCC(N)=O)C\4(C)C)[C@@H](CCC(N)=O)[C@]\3(C)CC(N)=O)[C@@H](CCC(N)=O)[C@]2(C)CC(N)=O.[C-]#N.[C-]#N.[Co] (some centres unmarked) [factor B, dicyanocobinamide]
- change in blood pressure after bolus (anesthetized rats): Transient decreased in blood pressure
- change in cardiac output after bolus (anesthetized rats): increased cardiac output
- baseline to which MAP was restored, versus BAY41-2272 alone (anesthetized rats; combined fB/BAY41-2272 treatment, FIG. 6B): even lower and more prolonged
- amplitude of drop in blood pressure (anesthetized rats; [4]): enhanced the amplitude of BAY41-2272-induced drop in blood pressure
- time of acutely decreased blood pressure (anesthetized rats; [4]): significantly prolonged
- sGC activation in combination with HMR1766, FIG. 4B ([1]; 50 μM with 1 μM HMR1766): even more effective than PPIX/HMR1766
- sGC activation compared with vitamin B12, B12a and PPIX, FIG. 4B ([1]; all at 50 μM): effective activator of sGC
- sGC activation by the combination (synergy) [1, 5]: synergistically enhanced the enzyme
- shift of EC50 of sGC activation in the combination [1, 5]: shifted the EC50 to lower concentrations
- concentration at which sGC activation is maximal (dose response) [1]: did not reach maximum in the tested range of concentrations
- sGC activation (cGMP production), FIG. 4A ([1]; tetrapyrrole alone at 50 μM): significantly activated sGC
- vascular relaxation of preconstricted aortic rings (rat aortic rings [2]): can induce vascular relaxation
- EC50 of aortic ring relaxation (rat aortic rings [2]; [6]): decreased
- relaxation response (rat aortic rings [2]; [6]): increased
- levels of cGMP in aortic rings (rat aortic rings [3]): increased

- concentration at which sGC activation is maximal (dose response) [1]: 50 µM
Molecule: cyanocobalamin [vitamin B12, reference compound]
- vascular relaxation of preconstricted aortic rings (rat aortic rings [2]): can induce vascular relaxation

Molecule: [C-]#[O+] [CO, carbon monoxide]
- cGMP produced compared to the resting enzyme (sGC; low-output state): 3-4 time

Molecule: Nc1nc(-c2nn(Cc3ccccc3F)c3ncccc23)nc(N)c1N1CCOCC1 [BAY41-2272, reference compound]
- MAP after administration (anesthetized rats; 100 μg/kg BAY41-2272 alone): stabilize their MAP at lower values
- time lower MAP is maintained (anesthetized rats; 100 μg/kg BAY41-2272 alone): at least 30 minutes
- change in blood pressure after bolus (anesthetized rats): Transient decreased in blood pressure
- change in cardiac output after bolus (anesthetized rats): increased cardiac output
- shift of EC50 of sGC activation in the combination [1, 5]: shifted the EC50 to lower concentrations

Molecule: C/C1=C2/[N-][C@H]([C@H](CC(N)=O)[C@@]2(C)CCC(=O)NC[C@H](C)OP(=O)([O-])O[C@H]2[C@@H](O)[C@@H](n3cnc4cc(C)c(C)cc43)O[C@@H]2CO)[C@]2(C)N=C(/C(C)=C3N=C(/C=C4N=C1[C@@H](CCC(N)=O)C\4(C)C)[C@@H](CCC(N)=O)[C@]\3(C)CC(N)=O)[C@@H](CCC(N)=O)[C@]2(C)CC(N)=O.[CH3-].[Co+3] [methyl-B12, methylcobalamin, reference compound]
- vascular relaxation of preconstricted aortic rings (rat aortic rings [2]): can induce vascular relaxation

Source: patent US20100144675A1, “Regulation of sGC Function by Corrin Derivatives” (priority 2007, published 2010)
